Marks after values point to notes of the source that are not given here.
Legend:
CIN and HPV infections = settings: cited from earlier work
[1] = cited from earlier work
HeLa cells = experiment: Apoptosis by V450 Annexin V / propidium iodide flow cytometry; assay type: cell-based
Text: Staining with V450 Annexin V (BD Biosciences) was used to analyse the percentage of cells within a population that are actively undergoing apoptosis. Propidium Iodide (PI) is a standard DNA-staining flow cytometric viability probe and is used to distinguish viable from nonviable cells. Cells that stain positive for V450 Annexin V and negative for PI are undergoing apoptosis. Cells that stain positive for both V450 Annexin V and PI are either in the end stages of apoptosis, are undergoing necrosis, or are already dead. Cells that stain negative for both V450 Annexin V and PI are alive and not undergoing measurable apoptosis.
For this reason these cells were chosen to evaluate the effects of these compounds on cell death. A 2 ml aliquot of growth medium containing 20,000 cells was seeded into each well of a 6 well plate. […] The growth medium was removed and retained and the cells washed with PBS followed by Incubation with 1 ml of Accutase (Life Technologies, Paisley, UK, Catalog Number A11105-01) per well for 15 mins. The original growth medium was then added back to neutralise the Accutase, and this centrifuged at 1,200 rpm for 5 mins to pellet the cells and this repeated twice with cold PBS. The cell pellet was finally re-suspended in 1× binding buffer (10×=0.1 M Hepes (pH 7.4), 1.4 M NaCl, 25 mM CaCl2) at a concentration of 10^6 cell/ml. A 100 μl aliquot containing 10^5 cells was removed and placed in a 5 ml culture tube and 5 μl of V450 Annexin V added plus 10 μl PI (50 μg/ml) added. The cells were gently mixed and incubated at room temperature for 15 min in the dark then 400 μl of 1× binding buffer was added prior to being analysed by flow cytometry using a Cyan ADP instrument (Beckman Coulter) and Summit software within one hour of the above procedure. The Annexin fluorochrome was excited using a 405 nm laser and the emission measured using a 450/50 nm bandpass filter. The PI was excited using a 488 nm laser and the emission detected using a 613/20 nm bandpass filter. The data was gated to select single cells using a plot of forward scatter against pulse width, and to exclude debris using forward scatter plotted against side scatter. All cytometry assays shown were the result of three separate cultures and intra-assay variability was also assessed by repeating the same drug treatment assay (1:1 Lop/Rit) three times. Unstained cells and cells stained separately with either V450 Annexin V or PI were used as controls to optimise compensation and gating of the cytometer.

CIN2 lesions = settings: young women aged 18-29; topical, physician applied, 16 weeks; cited from earlier work
SiHa cells = experiment: CellTitre 96 AQ colorimetric cell growth assay; assay type: cell-based; settings: 5 μM, 0-72 hours
Procedure: SiHa cells were grown in RPMI plus 10% FBS and HeLa in DMEM plus 10% FBS. These were seeded at 2000 cells/well for HeLa and 5000 cells/well for SiHa in triplicate into standard tissue culture grade 96 well plates and incubated overnight at 37° C./5% CO2. […] At each time point 20 μl of CellTitre 96® AQ reagent (Promega) was then added to three separate wells per data point and the absorbance (OD490) read after 1 hour at 37° C. The CellTitre 96® AQ reagent is a water soluble MTS formazan version of the well-known MTT reagent which produces a colorimetric readout that is directly proportional to the number of viable cells present.

glioma = settings: ritonavir alone; cited from earlier work
[2] = system: pre-invasive cells derived from the cervix; settings: cited from earlier work
[3] = system: more advanced invasive cervical disease; settings: cited from earlier work
HPV infection = settings: hybrid capture 2 assay; cited from earlier work
CIN2/3 = settings: topical application; cited from earlier work

CC(C)Cn1cnc2c(N)nc3ccccc3c21 [Imiquimod]
effect against CIN and HPV infections (CIN and HPV infections; before and after LEEP, treatment >8 weeks): some effect
side effects (CIN and HPV infections; direct application to the cervix): quite severe

Cc1cccc(C)c1OCC(=O)N[C@@H](Cc1ccccc1)[C@@H](O)C[C@H](Cc1ccccc1)NC(=O)[C@H](C(C)C)N1CCCNC1=O (relative stereo) [lopinavir, [1S-[1R*(R*), 3R*, 4R*]]—N-[4-[(2,6-dimethylphenoxy0acetyl]amino]-3-hydroxy-5-phenyl-1-(phenylmethyl)pentyl]tetrahydro-alpha-(1-methylethyl)-2-oxo-1 (2H)-pyrimidineacetamide]
solubility in water [1]: virtually insoluble in water
R4 gate Mean (percentage of cells in quadrant R4, late stage apoptosis) (HeLa cells; 48 hrs, total dose 25 μM, concentrations (μM) in the label): 21.8000%
Mean Difference to DMSO, R4 gate (Dunnett t) (HeLa cells; 48 hrs, versus DMSO control): 15.38*
level of apoptosis compared between treatments (FIG. 13) (HeLa cells; total dose 25 μM, R4 and R6+R4): less effective than any of the combination treatments
Mean Difference, R4 gate (Bonferonni) (HeLa cells; versus Lop20Rit5): −13.45*

O=c1[nH]cc(F)c(=O)[nH]1 [5FU]
effective against CIN2 lesions (CIN2 lesions): > 90%

CC(C)c1nc(CN(C)C(=O)N[C@H](C(=O)N[C@@H](Cc2ccccc2)C[C@H](O)[C@H](Cc2ccccc2)NC(=O)OCc2cncs2)C(C)C)cs1 (relative stereo) [ritonavir, 10-Hydroxy-2-methyl-5-(1-methylethl)-1-[2-(1-methylethyl)-4-thiazolyl]-3,6-dioxo-8, 11bis(phenylmethyl)-2,4,7,12-tetraazatridecan-13-oic acid, 5-thiazolylmethylester, [5S-(5R*,8R*,10R8,11R*)]]
effect on cell growth (OD490) (SiHa cells): no effect
effect against glioma in vivo (glioma): no effect
activity against pre-invasive cells derived from the cervix [2]: has shown activity
efficacy against more advanced invasive cervical disease [3]: not effective

Nc1ccn(C[C@@H](CO)OCP(=O)(O)O)c(=O)n1 [Cidofovir]
elimination of HPV infection (HPV infection): did not eliminate HPV infection
clearance of CIN (CIN2/3): ~60%
